Laboratory results reported in patent US9988680B2, “Non-natural nucleosides as theranostic agents” (Case Western Reserve University, priority 2011, dated 2018).
Values after ≈ are worked out from the molar mass of the structure shown. Each block holds one molecule with its values, some of them ahead of it.

Columns and labels:
MOLT4 cells [1] = assay: In situ click reaction with AlexaFluor488-azide, flow cytometry, MOLT4; format: cell-based
Description: (§1) In situ “click” reactions were performed using cells harvested after 2 days of treatment with DMSO, 3-Eth-5-NIdR (10, 40, or 100 μg mL^−1), 5-NIdR (100 μg mL^−1) or 5-ethynyl-2′-deoxyuridine (EdU) (10 μM). All cells were fixed with cold methanol. Under minimal lighting, cells were treated with 0.3 mL of saponin-based permeabilization and wash buffer for 45 min at 37° C. Click reactions were initiated by adding the click-iT reaction cocktail according to the instructions of the manufacturer (Invitrogen) followed by incubation at 37° C. for 90 min. Cells were then washed two times with saponin-based permeabilization and wash buffer. Cell pellets were dislodged using 0.5 mL solution of 10 μg mL^−1 PI and RNAase A in saponin-based permeabilization and wash buffer and then incubated for at least 15 min prior to flow cytometry analysis.
MOLT4 cells were treated with DMSO, EdU (a “clickable” thymidine analogue), 5-NIdR, and 3-Eth-5-NIdR for 2 days and then washed with PBS to remove any nucleoside and/or nucleotide not incorporated into DNA. After fixation and permeabilization, the cells were treated with AlexaFluor488-azide and Cu(I) catalyst to commence “clicking” of any incorporated nonnatural nucleotide. Dual parameter flow cytometry applying PI staining coupled with detection of the AlexaFluor488 fluorophore was used to detect the “clicked” non-natural nucleotide in cellular DNA. […] This high amount of “clicked” DNA reflects transport of EdU into the cell, conversion to the corresponding nucleoside triphosphate, and incorporation into the DNA of replicating cells. MOLT4 cells treated with 10 μg mL^−1 3-Eth-5-NIdR also show appreciable levels of AlexaFluor488 stained DNA (2.8%) after 2 days of treatment. Furthermore, the amount of “clicked” DNA is dosedependent as treatment with 40 μg mL^−1 Eth-5-NIdR yields a […] increase in AlexaFluor488 staining (6.5%). Identical experiments were performed using the Loucy cell line that lacks TdT and thus is less sensitive to the cytotoxic effects of the non-natural nucleoside (vide inf ra). […] Treatment with 40 μg mL^−1 of 3-Eth-5-NIdR produces low levels of “clicked” DNA (0.02%). […] Once incorporated into DNA, the non-natural nucleotide inhibits cellular DNA replication and induces apoptosis. Finally, it should be emphasized that low levels (<0.5%) of AlexaFluor488 staining are detected in cells treated with 100 μg mL^−1 5-NIdR.

Jurkat cells = assay: Cell proliferation assay (trypan blue), Jurkat; format: cell-based; conditions: up to 72 h
Description: (§2) Cells were seeded at a population density of ˜200,000 cells mL-1 and treated with variable concentrations of non-natural nucleoside (0.1-100 μg mL-1) for up to 72 h. The final DMSO concentration in all experiments was 0.1%. Cell viability was assessed via trypan blue staining and counting the number of viable (clear) versus non-viable (blue) cells under a microscopy using a hemocytometer. The IC50 values for both nonnatural nucleosides were obtained using a nonlinear regression curve fit of the data to eq 3. LD50 values for the non-natural nucleosides were calculated using identical approaches.
(§3) Identical cell-based experiments were performed with the other ALL cell lines, and the corresponding IC50 and LD50 values for 5-NIdR and 3-Eth-5-NIdR against each cell line are summarized in Table 2. […] The increased potency of 3-Eth-5-NIdR likely reflects the higher catalytic efficiency for the corresponding nucleoside triphosphate to act as a chain-terminating substrate for TdT. […] In general, there is an excellent correlation (R^2=0.695, p<0.0001) between the anti-cancer effects of the non-natural nucleoside with TdT level. Similar analyses were performed by plotting the LD50 values of 3-Eth-5-NIdR as a function of TdT content (FIG. 3E).

RS4(11) cells = assay: Cell proliferation assay (trypan blue), RS4(11); format: cell-based; conditions: up to 72 h
Description: as §2, §3

MOLT4 cells [2] = assay: Apoptosis measurement (Annexin V-Alexa Fluor 488 / propidium iodide flow cytometry); format: cell-based; conditions: for PI uptake (necrotic cell death): MOLT4
Description: Cells were treated with DMSO (vehicle), 5-NIdR (100 μg mL-1), and 3-Eth-5-NIdR (10 and 40 μg mL-1) as described above. Cells were harvested by centrifugation and washed in phosphate-buffered saline and resuspended in 100 μL of binding buffer containing AnnexinV-Alexa Fluor 488 conjugate. Cells were treated with propidium iodide (PI) and incubated at RT for 15 min followed by flow cytometry analysis. This enables live cells (unstained with either Alexa Fluor 488 or PI) to be discriminated from early apoptotic (stained with Alexa Fluor 488), late apoptotic cells (stained with Alexa Fluor 488 and PI), and necrotic cells (stained with PI).
The mechanism by which these non-natural nucleosides induce cell death was interrogated using dual parameter FACS analyses measuring propidium iodide uptake and Alexa Fluor488 annexin V conjugate staining. This allows live cells (unstained with either fluorophore) to be distinguished from cells that are early apoptotic (annexin V staining only), late apoptotic (propidium iodide and annexin V staining), and necrotic (propidium iodide staining only). […] In this case, treatment with 100 μg mL^−1 5-NIdR causes a 5-fold increase in early and late stage apoptosis, respectively. […] The induction of apoptosis was also independently confirmed by using agarose gel electrophoresis to observe DNA cleavage sites between nucleosomes that occur in chromatin at ˜200-base pair intervals.

Loucy cells [3] = assay: Cell proliferation assay (trypan blue), Loucy; format: cell-based; conditions: for IC50 / LD50: Loucy (TdT-negative), up to 72 h
Description: as §2

MOLT4 cells [4] = assay: Cell proliferation assay (trypan blue, viable vs non-viable cells), MOLT4; format: cell-based; conditions: for IC50 / LD50: MOLT4, up to 72 h
Description: as §2
This hypothesis was tested by measuring the cytostatic and/or cytotoxic effects of the corresponding nucleoside, 3-Eth-5-NIdR, and 5-nitroindolyl-2′-deoxynucleoside (5-NIdR) against various ALL cell lines including MOLT4, CEM-C7, Jurkat, RS4(11), JS45.01, and Loucy. Western blot analyses was first performed to determine TdT levels in each ALL cell line. […] We next tested the efficacy of 5-NIdR and 3-Eth-5-NIdR by treating exponentially growing cells with variable concentrations (0.1-100 μg mL^−1) of each non-natural nucleoside for time periods of up to 3 days.

CEM-C7 cells = assay: Cell proliferation assay (trypan blue), CEM-C7; format: cell-based; conditions: CEM-C7, up to 72 h
Description: as §2, §3

J45.01 cells = assay: Cell proliferation assay (trypan blue), J45.01; format: cell-based; conditions: J45.01, up to 72 h
Description: as §2, §3

Loucy cells [5] = assay: In situ click reaction with AlexaFluor488-azide, flow cytometry, Loucy; format: cell-based; conditions: 40 μg mL^−1, 2 days
Description: as §1
MOLT4 cells were treated with DMSO, EdU (a “clickable” thymidine analogue), 5-NIdR, and 3-Eth-5-NIdR for 2 days and then washed with PBS to remove any nucleoside and/or nucleotide not incorporated into DNA. After fixation and permeabilization, the cells were treated with AlexaFluor488-azide and Cu(I) catalyst to commence “clicking” of any incorporated nonnatural nucleotide. […] Finally, it should be emphasized that low levels (<0.5%) of AlexaFluor488 staining are detected in cells treated with 100 μg mL^−1 5-NIdR.

[6] = target: terminal deoxynucleotidyl transferase (TdT) (Bos taurus, UniProt P06526); assay: Incorporation of natural and non-natural nucleotides by TdT (polymerization assay, Michaelis-Menten kinetics); format: biochemical; conditions: incorporation by TdT; 6 units TdT, 1.5 μM single-stranded DNA substrate
Sequence of terminal deoxynucleotidyl transferase (TdT) (P06526 whole entry): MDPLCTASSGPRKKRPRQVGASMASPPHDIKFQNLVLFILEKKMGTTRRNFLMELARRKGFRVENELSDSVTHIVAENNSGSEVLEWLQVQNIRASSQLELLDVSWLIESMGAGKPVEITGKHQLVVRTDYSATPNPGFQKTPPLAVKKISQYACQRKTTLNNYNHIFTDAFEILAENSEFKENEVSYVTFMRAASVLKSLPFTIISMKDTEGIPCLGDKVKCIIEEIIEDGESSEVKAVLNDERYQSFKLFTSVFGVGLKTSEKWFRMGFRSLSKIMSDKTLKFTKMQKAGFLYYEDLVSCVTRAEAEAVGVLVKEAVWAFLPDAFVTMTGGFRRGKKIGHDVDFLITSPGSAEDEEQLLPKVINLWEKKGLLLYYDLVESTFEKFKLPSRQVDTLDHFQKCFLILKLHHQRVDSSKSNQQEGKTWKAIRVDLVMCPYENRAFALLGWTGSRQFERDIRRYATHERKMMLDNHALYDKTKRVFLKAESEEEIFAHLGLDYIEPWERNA
Description: All enzymatic assays were performed as previously described. […] Reactions were quenched with 200 Mm EDTA at variable times (5-600 s) and analyzed using denaturing gel electrophoresis. Time courses in product formation were fitted using eq 1: Y=mt+b(1) (1)
where y is the amount of product, m is the rate of the reaction, t is time, and b is the Y-intercept. Km and Vmax values were determined by fits of the data points to the Michaelis-Menten equation: […]
where Vmax is the maximal rate of nucleotide incorporation, Km is the Michaelis constant for dNTP, and [dNTP] is the concentration of nucleotide substrate. The IC50 value for 3-Eth-5-NITP was obtained using a nonlinear regression curve fit of the data to eq 3:
The biological function of TdT is to expand immunological diversity by randomly incorporating dNTPs into single-stranded DNA during V(D)J recombination. […] TdT also utilizes nucleotide analogues including 2′,3′-dideoxynucleotides, dinucleoside 5′,5′-tetraphosphates, and intrinsically fluorescent nucleotide analogues. In this report, we tested if TdT also incorporates indolyl-2′-deoxyribose-5′-triphosphates that bear non-natural moieties such as ethynyl and nitro groups at the 3- and 5-position, respectively, of the indole base. […] Aliquots of the reaction were quenched with EDTA at variable time points, and the polymerization reactions were then subjected to denaturing polyacrylamide gel electrophoresis to separate extended primers from unreacted substrate.
Time courses in product formation were generated using pseudo-first order reaction conditions in which 6 units of TdT were incubated with 1.5 μM DNA substrate and mixed with variable concentrations of non-natural nucleotide (0.05-50 μM). Each time course was fit to an equation for a straight line to define the rate of nucleotide incorporation (data not shown).

[7] = MOLT4, 40 μg mL^−1, compared to DMSO
[8] = MOLT4, 100 μg mL^−1, compared to DMSO
[9] = MOLT4, 100 μg mL^−1, 2 days post-treatment

SMILES: C#Cc1cn([C@H]2C[C@H](O)[C@@H](CO)O2)c2ccc([N+](=O)[O-])cc12 [3-Eth-5-NIdR, 3-ethynyl-5-nitroindolyl-2′-deoxynucleoside]
AlexaFluor488 stained (clicked) DNA (MOLT4 cells [1]; MOLT4, 10 μg mL^−1, 2 days): 2.8%
AlexaFluor488 staining (clicked DNA) (MOLT4 cells [1]; MOLT4, 40 μg mL^−1, 2 days): 6.5%
increase in AlexaFluor488 staining (MOLT4 cells [1]; MOLT4, 40 vs 10 μg mL^−1): 2.5 fold
IC50 (Jurkat cells): 49 ± 1 µg/mL (≈ 162 µM)
LD50 (Jurkat cells): ~100 µg/mL
IC50 (RS4(11) cells): 23 ± 2 µg/mL (≈ 76.1 µM)
LD50 (RS4(11) cells): 57 ± 2 µg/mL
PI uptake (necrotic cell death) (MOLT4 cells [2]): no significant PI uptake
Early apoptoic cells (%) (MOLT4 cells [2]; MOLT4, 10 μg mL^−1): 10.5 ± 1.5%
Late apoptoic cells (%) (MOLT4 cells [2]; MOLT4, 10 μg mL^−1): 5.4 ± 1.0%
Necrotic cells (%) (MOLT4 cells [2]; MOLT4, 10 μg mL^−1): 0.7 ± 0.2%
Viable cells (%) (MOLT4 cells [2]; MOLT4, 10 μg mL^−1): 83.4 ± 2.7%
level of apoptosis compared with 100 μg mL^−1 5-NIdR (MOLT4 cells [2]; MOLT4, 10 μg mL^−1): equivalent levels of apoptosis
Early apoptoic cells (%) (MOLT4 cells [2]; MOLT4, 40 μg mL^−1): 68.8 ± 0.9%
Late apoptoic cells (%) (MOLT4 cells [2]; MOLT4, 40 μg mL^−1): 23.7 ± 4.9%
Necrotic cells (%) (MOLT4 cells [2]; MOLT4, 40 μg mL^−1): 1.2 ± 0.2%
Viable cells (%) (MOLT4 cells [2]; MOLT4, 40 μg mL^−1): 6.3 ± 3.7%
increase in early stage apoptosis (MOLT4 cells [2]; [7]): 13 fold
increase in late stage apoptosis (MOLT4 cells [2]; [7]): 7 fold
IC50 (Loucy cells [3]): 62 ± 5 µg/mL (≈ 205 µM)
LD50 (Loucy cells [3]): 63 ± 3 µg/mL
cytostatic or cytotoxic effects (Loucy cells [3]; Loucy, 40 μg mL^−1): significant cytostatic or cytotoxic effects are not observed
cytostatic and cytotoxic effects (MOLT4 cells [4]; MOLT4, 10 μg mL^−1): cytostatic and cytotoxic effects are observed
IC50 (MOLT4 cells [4]): 14.1 ± 2.4 µg/mL (≈ 46.6 µM)
LD50 (MOLT4 cells [4]): 27.7 ± 1.7 µg/mL
IC50 (MOLT4 cells [4]; listed as 3-Eth-5-NIdr): 14 ± 2 µg/mL (≈ 46.3 µM)
LD50 (MOLT4 cells [4]; listed as 3-Eth-5-NIdr): 28 ± 4 µg/mL
IC50 (CEM-C7 cells): 23 ± 2 µg/mL (≈ 76.1 µM)
LD50 (CEM-C7 cells): ~100 µg/mL
IC50 (J45.01 cells): 34 ± 6 µg/mL (≈ 112 µM)
LD50 (J45.01 cells): 71 ± 6 µg/mL
clicked DNA (AlexaFluor488 staining) (Loucy cells [5]): 0.02%

SMILES: O=[N+]([O-])c1ccc2c(ccn2[C@H]2C[C@H](O)[C@@H](CO)O2)c1 [5-NIdR, 5-nitroindolyl-2′-deoxynucleoside, reference compound]
AlexaFluor488 staining (MOLT4 cells [1]; 100 μg mL^−1, 2 days, cell line not given): < 0.5%
IC50 (Jurkat cells): ~100 µg/mL (≈ 359 µM)
LD50 (Jurkat cells): >>100 μg mL^−1
IC50 (RS4(11) cells): >100 µg/mL
LD50 (RS4(11) cells): >>100 μg mL^−1
PI uptake (necrotic cell death) (MOLT4 cells [2]): no significant PI uptake
Early apoptoic cells (%) (MOLT4 cells [2]; MOLT4, 100 μg mL^−1): 26.5 ± 3.7%
Late apoptoic cells (%) (MOLT4 cells [2]; MOLT4, 100 μg mL^−1): 18.9 ± 3.4%
Necrotic cells (%) (MOLT4 cells [2]; MOLT4, 100 μg mL^−1): 1.5 ± 0.5%
Viable cells (%) (MOLT4 cells [2]; MOLT4, 100 μg mL^−1): 53.1 ± 6.7%
increase in early stage apoptosis (MOLT4 cells [2]; [8]): 5 fold
increase in late stage apoptosis (MOLT4 cells [2]; [8]): 5 fold
IC50 (Loucy cells [3]): >>100 μg mL^−1
LD50 (Loucy cells [3]): >>100 μg mL^−1
increase in the number of non-viable cells (Loucy cells [3]; Loucy, 100 μg mL^−1): does not cause a substantial increase
reduction in the number of viable cells (Loucy cells [3]; Loucy, 100 μg mL^−1): < 25%
increase in the number of non-viable cells (MOLT4 cells [4]; [9]): 2.5 fold
reduction in the number of viable cells (MOLT4 cells [4]; [9]): ~5 fold
IC50 (MOLT4 cells [4]): 34 ± 6 µg/mL (≈ 122 µM)
LD50 (MOLT4 cells [4]): ~100 µg/mL
IC50 (CEM-C7 cells): ~100 µg/mL (≈ 359 µM)
LD50 (CEM-C7 cells): >>100 μg mL^−1
IC50 (J45.01 cells): ~100 µg/mL (≈ 359 µM)
LD50 (J45.01 cells): >>100 μg mL^−1

Km [6]: 1.5 ± 0.4 µM
Vmax [6]: 3.3 ± 0.3 nM/s
SMILES: Nc1ncnc2c1ncn2[C@H]1C[C@H](O)[C@@H](COP(=O)(O)OP(=O)(O)OP(=O)(O)O)O1 [dATP]
